Where two headings read alike, the source gives them in different places.
What was measured:
Assay type in all cases: cell-based
HIV-IIIb = assay: Antiviral assay in MT4 cells; conditions: Human immunodeficiency virus 1, IIIB, MT4, 120 h
Description: (§3) For the antiviral assay utilizing MT4 cells, 0.4 μL of 189× test concentration of 3-fold serially diluted compound in DMSO was added to 40 μL of cell growth medium (RPMI 1640, 10% FBS, 1% penicilline/Streptomycine, 1% L-Glutamine, 1% HEPES) in each well of 384-well assay plates (10 concentrations) in quidruplicate.
(§4) 1 mL aliquots of 2×10^6 MT4 cells are pre-infected for 1 and 3 hours respectively at 37° C. with 25 μL (MT4) or of either cell growth medium (mock-infected) or a fresh 1:250 dilution of an HIV-IIIb concentrated ABI stock (0.004 m.o.i. for MT4 cells). Infected and uninfected cells are diluted in cell growth medium and 35 μL of 2000 (for MT4) cells is added to each well of the assay plates.
(§5) Assay plates were then incubated in a 37° C. incubator. After 5 days of incubation, 25 μL of 2× concentrated CellTiter-Glo™ Reagent (catalog # G7573, Promega Biosciences, Inc., Madison, Wis.) was added to each well of the assay plate. Cell lysis was carried out by incubating at room temperature for 2-3 minutes, and then chemiluminescence was read using the Envision reader (PerkinElmer).

[1] = Cytotoxicity (CC50) in MT4 cells, CellTiter-Glo; conditions: human
Description: as §3, §4, §5

human PXR (NR1I2) = molecular target: T1, human PXR (NR1I2) (Homo sapiens, UniProt O75469); assay: Human PXR activation assay, luciferase reporter gene in DPX2 cells; conditions: human, relative to maximum fold induction by 10 or 20 uM rifampicin
T1 construct: expressed in transfected cells; host or cells: DPX2 (stably transformed tumor cell line)
T1 sequence (O75469 1-434): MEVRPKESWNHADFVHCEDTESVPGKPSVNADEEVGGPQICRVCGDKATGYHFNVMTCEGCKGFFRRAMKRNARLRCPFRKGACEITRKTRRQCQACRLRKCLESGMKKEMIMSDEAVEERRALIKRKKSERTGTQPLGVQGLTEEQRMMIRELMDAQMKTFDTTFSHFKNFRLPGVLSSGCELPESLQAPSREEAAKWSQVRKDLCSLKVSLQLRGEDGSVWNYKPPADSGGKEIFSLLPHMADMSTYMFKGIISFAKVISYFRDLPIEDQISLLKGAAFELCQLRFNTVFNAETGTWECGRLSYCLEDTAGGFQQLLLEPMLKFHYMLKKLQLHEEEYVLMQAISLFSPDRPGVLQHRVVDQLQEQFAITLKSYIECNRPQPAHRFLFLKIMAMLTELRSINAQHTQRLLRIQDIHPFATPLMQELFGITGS
Description: (§1) Luciferase Reporter Gene Assay.
(§2) A stably transformed tumor cell line (DPX2) plated on 96-well microtiter plates. DPX2 cells harbor the human PXR gene (NR1I2) and a luciferase reporter gene linked to two promoters identified in the human CYP3A4 gene, namely XREM and PXRE. The cells are treated with six concentrations of compounds (0.15˜50 µM) and incubated for 24 hr. The number of viable cells will be determined and the reporter gene activity is assessed. Positive control: Rifampicin at 6 concentrations (0.1˜20 µM). % Emax relative to the maximum fold induction by 10 or 20 µM RIF is calculated for test compounds according to the following equation which adjusts for the DMSO background: % Emax=(Fold induction−1)/(Maximum fold induction by RIF−1)×100%.

human PXR = molecular target: T2, human PXR (Homo sapiens, UniProt O75469); assay: as above; conditions: 24 hr, relative to maximum fold induction by 10 or 20 uM rifampicin
T2 construct: expressed in transfected cells; host or cells: DPX2 (stably transformed tumor cell line)
T2 sequence (O75469 1-434): T1 sequence (O75469 1-434)
Description: as §1, §2

[2] = MT-4 cells infected with HIV-IIIb, 5 days incubation, read-out: EC50

SMILES	EC50 (HIV-IIIb; [2]) [nM]	CC50 at 5 days [1] [nM]	% Emax (human PXR) [%]	other results
O=C(NCc1ccc(F)cc1F)c1cn2c(c(O)c1=O)C(=O)N1[C@H]3CC[C@H](C3)O[C@@H]1C2 [Compound 2]	1.9	2960		Emax at 24 hr, 15 µM (human PXR (NR1I2)): 2.8%
O=C(NCc1ccc(F)cc1F)c1cn2c(c(O)c1=O)C(=O)N1[C@@H]3CC[C@@H](C3)O[C@H]1C2 [Compound 3]	1.9	36200		Emax at 24 hr, 15 µM (human PXR (NR1I2)): 5%
O=C(NCc1ccc(F)cc1F)c1cn2c(c(O)c1=O)C(=O)N1C(C2)[N@@]2CC[C@@H]1C2 (stereo partly drawn) [Compound 4, (1 S,4R)—N-(2,4-difluorobenzyl)-7-hydroxy-6,8-dioxo-3,4,6,8,12,12a-hexahydro-2H-1,4-methanopyrido[1′,2′:4,5]pyrazino[1,2-a]pyrimidine-9-carboxamide]			3.2	
O=C(NCc1ccc(F)cc1F)c1cn2c(c(O)c1=O)C(=O)N1C(C2)[N@]2CC[C@H]1C2 (stereo partly drawn) [Compound 6]		53200		
O=C(NCc1ccc(F)cc1F)c1cn2c(c(O)c1=O)C(=O)N1C(C2)O[C@H]2CCC[C@@H]1C2 (stereo partly drawn) [Compound 7]			6.5	
O=C(NCc1ccc(F)cc1F)c1cn2c(c(O)c1=O)C(=O)N1C(C2)O[C@@H]2CCC[C@H]1C2 (stereo partly drawn) [Compound 8]			6.6	
C[C@@H](NC(=O)c1cn2c(c(O)c1=O)C(=O)N1[C@@H]3CC[C@@H](C3)O[C@H]1C2)c1ccc(F)cc1 [Compound 9]				Emax at 24 hr, 15 µM (human PXR (NR1I2)): 0.07%
C[C@@H](NC(=O)c1cn2c(c(O)c1=O)C(=O)N1[C@H]3CC[C@H](C3)O[C@@H]1C2)c1ccc(F)cc1 [Compound 10]				Emax at 24 hr, 15 µM (human PXR (NR1I2)): 0.19%
C[C@@H](NC(=O)c1cn2c(c(O)c1=O)C(=O)N1[C@@H]3CC[C@@H](C3)O[C@H]1C2)c1ccc(F)cc1F [Compound 11]	4.4			
C[C@@H](NC(=O)c1cn2c(c(O)c1=O)C(=O)N1[C@H]3CC[C@H](C3)O[C@@H]1C2)c1ccc(F)cc1F [Compound 12]	5.4	3230		
O=C(NCc1ccc(F)c(F)c1)c1cn2c(c(O)c1=O)C(=O)N1[C@@H]3CC[C@@H](C3)O[C@H]1C2 [Compound 18]			4.4	
O=C(NCc1ccc(F)cc1F)c1cn2c(c(O)c1=O)C(=O)N1C(C2)[N@]2CCC[C@H]1C2 (stereo partly drawn) [Compound 19]			1.5	
O=C(NCc1ccc(F)cc1F)c1cn2c(c(O)c1=O)C(=O)N1C(C2)[N@@]2CCC[C@@H]1C2 (stereo partly drawn) [Compound 20]			2.4	
O=C(NCc1ccccc1F)c1cn2c(c(O)c1=O)C(=O)N1[C@@H]3CC[C@@H](C3)O[C@H]1C2 [Compound 23]	1.8	11500		
O=C(NCc1cc(F)cc(F)c1)c1cn2c(c(O)c1=O)C(=O)N1[C@@H]3CC[C@@H](C3)O[C@H]1C2 [Compound 24]				EC50 (HIV-IIIb): 3.4 nM; CC50 at 5 days ([1]; MT4 cells, MT-4 cells, 5 days incubation, read-out: CC50): 12600 nM
O=C(NCc1ccc(F)c(C(F)(F)F)c1)c1cn2c(c(O)c1=O)C(=O)N1[C@@H]3CC[C@@H](C3)O[C@H]1C2 [Compound 25]	17.9	7070		
O=C(NCc1ccc(Cl)c(F)c1)c1cn2c(c(O)c1=O)C(=O)N1[C@@H]3CC[C@@H](C3)O[C@H]1C2 [Compound 26]	8	11500		
O=C(NC1(c2ccc(F)cc2F)CC1)c1cn2c(c(O)c1=O)C(=O)N1C(C2)O[C@H]2CC[C@@H]1C2 (stereo partly drawn) [Compound 27]	4			
O=C(NC1(c2ccc(F)cc2F)CC1)c1cn2c(c(O)c1=O)C(=O)N1C(C2)O[C@H]2CCC[C@@H]1C2 (stereo partly drawn) [Compound 28]			6.1	
O=C(NC1(c2ccc(F)cc2F)CC1)c1cn2c(c(O)c1=O)C(=O)N1C(C2)O[C@@H]2CCC[C@H]1C2 (stereo partly drawn) [Compound 29]			3.2	
O=C(NC1(c2ccc(F)cc2F)CCCCC1)c1cn2c(c(O)c1=O)C(=O)N1C(C2)O[C@H]2CC[C@@H]1C2 (stereo partly drawn) [Compound 34]				EC50 (HIV-IIIb): 456 nM
O=C(N[C@@H](c1ccc(F)cc1F)C(F)(F)F)c1cn2c(c(O)c1=O)C(=O)N1C(C2)O[C@H]2CC[C@@H]1C2 (stereo partly drawn) [Compound 36]	3.5	13500		
C[C@H]1CO[C@@H]2Cn3cc(C(=O)NC4(c5ccc(F)cc5F)CC4)c(=O)c(O)c3C(=O)N12 [Compound 37, (3S,11aR)—N-(1-(2,4-difluorophenyl)cyclopropyl)-6-hydroxy-3-methyl-5,7-dioxo-2,3,5,7,11,11a-hexahydrooxazolo[3,2-a]pyrido[1,2-d]pyrazine-8-carboxamide]			1.5	

— patent US20180215769A1, “POLYCYCLIC-CARBAMOYLPYRIDONE COMPOUNDS AND THEIR PHARMACEUTICAL USE” (priority 2012, published 2018)
